Active and inactive are the calls of the source. No cut-off for these calls is given here.
Assays:
[1] = molecular target: T1, Neurotensin receptor type 1 (Homo sapiens, UniProt P30989); assay: Antagonist activity at human NTS1 receptor expressed in CHOK1 cells assessed as inhibition of intracellular calcium elevation pretreated 30 mins before with SR-48692 by FLIPR assay; assay type: functional, cell-based, CHO-K1
[2] = molecular target: T1, Neurotensin receptor type 1; assay: Displacement of [3H]neurotensin from human NTS1 receptor expressed in CHOK1 cells after 60 mins by beta plate liquid scintillation counter; assay type: cell-based, CHO-K1

T1 sequence (P30989 whole entry): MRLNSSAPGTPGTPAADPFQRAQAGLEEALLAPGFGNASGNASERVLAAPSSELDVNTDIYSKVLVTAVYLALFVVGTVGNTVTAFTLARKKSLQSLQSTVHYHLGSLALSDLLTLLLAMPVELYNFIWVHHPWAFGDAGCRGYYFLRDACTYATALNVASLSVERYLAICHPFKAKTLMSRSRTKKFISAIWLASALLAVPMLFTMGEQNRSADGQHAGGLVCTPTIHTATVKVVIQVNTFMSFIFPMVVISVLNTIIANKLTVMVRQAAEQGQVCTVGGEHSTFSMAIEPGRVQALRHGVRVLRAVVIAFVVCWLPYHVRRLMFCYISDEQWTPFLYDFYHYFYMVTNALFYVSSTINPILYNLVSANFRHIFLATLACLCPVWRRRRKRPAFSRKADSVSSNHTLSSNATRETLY

SMILES	IC50 [1]	Ki [2]	Activity ([2]; CHO-K1)
CC(C)C[C@@H](NC(=O)Cn1ccc2cc(NS(=O)(=O)c3cccc4cccnc34)ccc21)C(=O)O	3.76 nM	545 nM	–
CC(C)CC(NC(=O)OCC1c2ccccc2-c2ccccc21)C(=O)O (centres undefined)	3.79 nM	–	inactive

Reference: ChEMBL document CHEMBL1143436 (Bioorg Med Chem Lett, 2008)
